The results in this text go back to US7530461B2, “Esters of 5-aminolevulinic acid as photosensitizing agents in photochemotherapy” (PhotoCure ASA, priority 1995, dated 2009).

“Also recorded” adds a separate entry of the source. Where a name gives a salt, the structure may show the parent alone.

Data set [1] deals with basal cell carcinomas (BCCs). Description: Topical ALA-based PDT of patients with basal cell carcinomas. The class given is in vivo, human.
Data set [2] has as its system normal skin of nude mice. The experiment in a line: In situ measurement of PpIX fluorescence in the skin of mice by an optical-fiber-based system. The class given is in vivo. The conditions noted are these: for PpIX fluorescence in normal mouse skin after cream containing the agent alone: without ALA methylester. The method, then:
Chemicals. 5-aminolevulinic acid (ALA) methyl-, ethyl- and propyl-esters (H2N—CH2COOCH2—CH2COO—R; R can be CH3, CH2—CH2—CH3) were prepared by Norsk Hydro Research Center (Porsgrunn, Norway) as described in Examples 1 to 3. Free ALA hydrochloride and desferrioxamine mesylate (DF) were purchased from Sigma Chemical Company (St. Louis, Mo., USA). Dimethyl sulphoxide (DMSO) was obtained from Janssen Chimica (Geel, Belgium). Commercial oil-water creams (Unguentum Merck, Darmstadt, Germany) containing 20% one of the ALA ester derivatives (w/w), 20% free ALA, 20% ALA methylester plus 5% DF, 20% ALA methylester plus 20% DMSO, or 20% ALA methylester plus 5% DF and 20% DMSO were freshly prepared prior to use. All creams were made by the Pharmacy at the Norwegian Radium Hospital. For intraperitoneal injection, ALA and its methylester were freshly dissolved in saline. All other chemicals used were of the highest purity commercially available.
Animals. Female Balb/c nu/nu athymic nude mice were obtained from the Animal Laboratory at the Norwegian Radium Hospital and kept under specific-pathogen-free conditions. At the start of the experiments the mice were 6-7 weeks old weighing 18-24 g. Three mice were housed per cage with autoclaved covers in a dark room during the experiments.
(§1) Treatment procedure. One of the creams was painted on the normal skin at right flank region of each mouse, and covered by a semi-permeable dressing (3M, St Paul, Minn., USA) for various time intervals (from 0.25 to 24 h) before fluorescence measurements in situ or being biopsied for microscopic fluorescence imaging. About 0.2 g cream was applied to an approximate 2.25 cm^2 area of the skin. In the case of i.p. injection the mice were given ALA or its methylester at a dose of 150 mg/kg. At least three mice were used for each condition.
Fluorescence spectroscopic measurements in situ. A perkin Elmer LS-50 fluorescence spectrometer equipped with a red-sensitive photomultiplier (Hamamatsu R 928) was used. This instrument has a pulsed Xenon arc light source and phase sensitive detection, such that fluorescence can be readily measured. Part of the excitation beam (set at 408 nm for fluorescence measurements) was reflected into a 600 μm core multimodus optical quartz fiber (No. 3501 393, Dornier Medizintechnik, GmbH, Germering, Germany) by means of a mirror for application onto the subject through a hand held probe. Emission in the region of 550-750 nm was measured via emission fibres collecting information through the probe.
I. The effect of DF and/or DMSO on the build up of fluorescence in the normal skin of mice in situ was ascertained various times after topical administration of ALA-methylester. Methods were performed as described in Example 9.

In data set [3] the test system is normal skin of nude mice. The description is as above. The class given is in vivo. As to conditions: 14 hours after topical application; listed as free ALA.
Data set [4] has as its system normal skin of nude mice. Description: Fluorescence microscopy of mouse skin biopsies after topical application. It is filed as in vivo. As to conditions: 1 h after topical application. The method, then: as §1
Fluorescence microscopy. After the creams were topically applied to the skin of mice for various times (as indicated above), the skin was biopsied and the frozen tissue sections were cut with a cryostat to a thickness of 8 μm. The fluorescence microscopy was carried out using an Axioplan microscope (Zeiss, Germany) with a 100 W mercury lamp. The fluorescence images were recorded by a light-sensitive thermoelectrically cooled charge coupled device (CCD) camera (resolution: 385×578 pixels with a dynamic range of 16 bits per pixel)(Astromed CCD 3200, Cambridge, UK) and hard copies on a video printer (Sony multiscan video printer UP-930). The filter combination used for detection of porphyrin fluorescence consisted of 390-440 nm excitation filter, a 460 nm beam splitter and a >600 nm emission filter.
II. […] The fluorescence intensity of the porphyrins increased with the time after the application.

Data set [5] relates to normal skin of nu/nu nude mice. Description: Protoporphyrin IX production in the skin of mice by CCD microscopy of biopsies. It is filed as in vivo. As to conditions: 20% w/w cream; for time after topical application at which conversion into protoporphyrin IX (PpIX) is seen: normal skin of nu/nu nude mice; for time of maximum PpIX fluorescence after application: topical, 6 hours was the latest time point studied. On the procedure:
A commercial oil-in-water cream containing (20% w/w) one of the chemicals (free ALA, ALA methylester, ALA ethylester and ALA propylester) (see Example 1) was topically applied to the normal skin of nu/nu nude mice for 0.5, 1, 3 and 6 hours, then biopsied and evaluated by means of microscopic fluorescence photometry incorporating a light-sensitive thermol-electrically cooled charge coupled device (CCD) camera. […] The fluorescence intensity of PpIX in the skin increased with the time of the application and the maximum amounts of the fluorescence were seen about 6 hours (the latest time point studied) after the application in all cases.

Data set [6] relates to BCC lesions and adjacent normal skin. Description: Control one week after treatment (cream and light irradiation) of BCC patient. The class given is in vivo, human.
The subject of data set [7] is BCC lesions and surrounding normal skin. The experiment in a line: PpIX production in human BCC and surrounding normal skin by CCD microscopy of biopsies. The class given is in vivo. On the procedure:
[…] After removal of dressings and cream in vivo fluorescence was measured at the surface of tumor tissue and adjacent normal skin by means of a spectrofluorometer. Punch biopsies of the same areas were removed and samples were immediately immersed in liquid nitrogen. The tissue sections were cut with a cryostat microtome to a thickness of 8 μm. The localization pattern of the porphyrin fluorescence in the tissue sections was directly observed by means of fluorescence microscopy. The same frozen sections were subsequently stained with routine H&E staining for histological identification.
The same sections were subsequently stained with routine H&E staining for histological identification. Fluorescence microscopy was carried out with an Axioplan microscope (Zeiss, Germany). Fluorescence images and quantitative measurements were performed by a light-sensitive thermol-electrically cooled charge coupled device (CCD) camera (Astromed CCD 3200, Cambridge, UK) and an image processing unit (Astromed/Visilog, PC 486DX2 66 MHz VL). The main purpose for such quantitative measurements is to determine the exact penetration of ALA-induced porphyrins from tissue surface to the bottom layers of cancer lesions. The results are shown in FIGS. 8 and 9 in which the fluorescence intensity is expressed as a function of depth of cancer lesion.
The tests were performed as described in Example 11.
Each of the following figures show both (A) fluorescence images of either the bottom layer of BCC lesions or of the surrounding normal skin. Curves indicating the fluorescence intensity as a function of depth of the BCC lesions or of the normal skin are also shown (B).

The mark [8] stands for this setting: topical application for 24 hours.

With `NCC(=O)CCC(=O)O` [ALA, 5-aminolevulinic acid], the “complete response rate of nodular BCCs” value in data set [1] is on record as “low complete response rate”. In addition, the “superficial BCCs showing complete regression” value in data set [1] (past five years) is listed as “more than 90%”. Moreover, in data set [2] (20% cream, normal skin of nude mice), the “time after topical application at which PpIX fluorescence was built up” value was found to be 1.5 h. Besides, the “PpIX fluorescence in other areas of the skin and internal organs (ear, dermis, muscle, brain, liver)” value in data set [3] is “a strong fluorescence was also seen in the ear as well as in the other areas of the skin; also recorded: a strong fluorescence of free ALA-induced porphyrins was found in regions of the skin outside the area where the cream was topically applied”. Besides, in data set [4], the “localization of porphyrin fluorescence in mouse skin” value (“localization” below) was “fluorescence in the epidermis (Ep), epithelial hair follicles and sebaceous gland (arrows), but not in the dermis (De)”. Besides, in data set [5], the “time after topical application at which conversion into protoporphyrin IX (PpIX) is seen” value (“time after topical application … (PpIX) is seen” below) was found to be 0.5 h and the “time of maximum PpIX fluorescence after application” value (“time of maximum PpIX fluorescence” for short) is recorded as “about 6 hours”. For the same compound, in data set [6], the “erythema in adjacent normal skin exposed to cream and light irradiation” value is given as “marked erythema”; the “tumor response in treatment fields” value is given as “central necrotic area corresponding to the tumor”. Besides, the “distribution of PpIX fluorescence from top to bottom of BCC lesions” value in data set [7] (20% w/w cream, 24 hours, patient) is listed as “homogeneous distribution of PpIX fluorescence”. Moreover, in data set [7] (setting [8]), the “distribution of porphyrin fluorescence in the bottom layer of BCC and surrounding normal skin” value is listed as “homogenous distribution”; the “fluorescence intensity ratio between BCC and normal skin” value is listed as “about 1”; the “porphyrin fluorescence/production in BCC, ALA methyl ester versus free ALA alone” value is “less than that in the case of ALA methyl ester”.

Consider `CC(=O)N(O)CCCCCNC(=O)CCC(=O)N(O)CCCCCNC(=O)CCC(=O)N(O)CCCCCN` [DF, desferrioxamine mesylate], for which the “effect on production of ALA methylester-induced PpIX” value in data set [2] (topical, with 20% ALA methylester cream, normal mouse skin) is recorded as “significantly enhanced; also recorded: significant effect in enhancing the production”. The “PpIX fluorescence in normal mouse skin after cream containing the agent alone” value in data set [2] (topical) is recorded as “some fluorescence of PpIX”.

Take `CCOC(=O)CCC(=O)CN.Cl` [ALA ethylester, ethyl 5-aminolevulinate hydrochloride]: the “localization” value in data set [4] is “fluorescence in the epidermis (Ep), epithelial hair follicles and sebaceous gland (arrows), but not in the dermis (De)”. In addition, in data set [5], the “time after topical application … (PpIX) is seen” value was 0.5 h and the “time of maximum PpIX fluorescence” value was “about 6 hours”.

Consider `C[S+](C)[O-]` [DMSO, Dimethyl sulphoxide], for which the “PpIX fluorescence in normal mouse skin after cream containing the agent alone” value in data set [2] (topical) is on record as “did not show any fluorescence”.

As to `CCCOC(=O)CCC(=O)CN.Cl` [ALA propylester, n-propyl 5-aminolevulinate hydrochloride], the “localization” value in data set [4] was “fluorescence in the epidermis (Ep), epithelial hair follicles and sebaceous gland (arrows), but not in the dermis (De)”. Moreover, in data set [5], the “time after topical application … (PpIX) is seen” value was determined as 0.5 h and the “time of maximum PpIX fluorescence” value was “about 6 hours”.
